Measurements: ChEMBL document CHEMBL5390310, “Rapid PROTAC Discovery Platform: Nanomole-Scale Array Synthesis and Direct Screening of Reaction Mixtures” (ACS Med Chem Lett, 2023)
Calls of active or inactive are those of the source. The calls are words filed in the database; no cut-off is given here.

What follows are compounds tested against T1, von Hippel-Lindau disease tumor suppressor/Bromodomain-containing protein 4 (Homo sapiens, UniProt O60885+P40337) (assay: Protac activity at VHL E3 ligase/BRD4 in HEK293 cells assessed as BRD4 degradation by HiBiT assay).
Format: cell-based

T1 sequence (P40337 whole entry, looked up, other chains not shown): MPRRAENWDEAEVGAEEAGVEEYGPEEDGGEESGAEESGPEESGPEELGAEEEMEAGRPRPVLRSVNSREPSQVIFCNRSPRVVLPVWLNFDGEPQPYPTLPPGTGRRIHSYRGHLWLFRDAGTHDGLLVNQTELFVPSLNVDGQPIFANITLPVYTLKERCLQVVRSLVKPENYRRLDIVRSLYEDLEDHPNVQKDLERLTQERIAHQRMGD

| SMILES | pDC50 | Activity |
| --- | --- | --- |
| Cc1sc2c(c1C)C(c1ccc(Cl)cc1)=N[C@@H](CC(=O)N1CCN(CC#Cc3ccc4c(c3)CN(C3CCC(=O)NC3=O)C4=O)CC1)c1nnc(C)n1-2 (stereo in doubt; 4P) [listing 1 of 2 here] | 8.5 | – |
| Cc1sc2c(c1C)C(c1ccc(Cl)cc1)=N[C@@H](CC(=O)NCCCCCC(=O)N1CCN(CCCC3CCN(c4ccc5c(c4)CN(C4CCC(=O)NC4=O)C5=O)CC3)CC1)c1nnc(C)n1-2 (stereo in doubt) [listing 1 of 2 here] | 9.3 | – |
| Cc1sc2c(c1C)C(c1ccc(Cl)cc1)=N[C@@H](CC(=O)N1CCN(CC#Cc3ccc4c(c3)CN(C3CCC(=O)NC3=O)C4=O)CC1)c1nnc(C)n1-2 (stereo in doubt) [listing 1 of 2 here] | 8 | – |
| Cc1ncsc1-c1ccc(CNC(=O)[C@@H]2C[C@@H](O)CN2C(=O)[C@@H](NC(=O)CCCCCCNC(=O)C[C@@H]2N=C(c3ccc(Cl)cc3)c3c(sc(C)c3C)-n3c(C)nnc32)C(C)(C)C)cc1 (stereo in doubt; 7P) [listing 1 of 2 here] | 6.8 | – |
| Cc1sc2c(c1C)C(c1ccc(Cl)cc1)=N[C@@H](CC(=O)NCCCCCC(=O)NCCCC#Cc1cccc3c1CN(C1CCC(=O)NC1=O)C3=O)c1nnc(C)n1-2 (stereo in doubt; 9P) [listing 1 of 2 here] | 7.4 | – |
| Cc1sc2c(c1C)C(c1ccc(Cl)cc1)=N[C@@H](CC(=O)N1CCC3(CC1)CCN(c1ccc4c(c1)CN(C1CCC(=O)NC1=O)C4=O)CC3)c1nnc(C)n1-2 (stereo in doubt; 5P) | 8.6 | – |
| Cc1sc2c(c1C)C(c1ccc(Cl)cc1)=N[C@@H](CC(=O)N1CCC3(CCN(CC4CCN(c5ccc6c(c5)CN(C5CCC(=O)NC5=O)C6=O)CC4)CC3)CC1)c1nnc(C)n1-2 (stereo in doubt; 3P) [listing 1 of 2 here] | 9.1 | – |
| Cc1sc2c(c1C)C(c1ccc(Cl)cc1)=N[C@@H](CC(=O)N1CCN(CC3CCN(c4ccc5c(c4)CN(C4CCC(=O)NC4=O)C5=O)CC3)CC1)c1nnc(C)n1-2 (stereo in doubt; 1P) [listing 1 of 2 here] | 9.7 | – |
| Cc1sc2c(c1C)C(c1ccc(Cl)cc1)=N[C@@H](CC(=O)N1CCN(CCC3CCN(c4ccc5c(c4)CN(C4CCC(=O)NC4=O)C5=O)CC3)CC1)c1nnc(C)n1-2 (stereo in doubt) [listing 1 of 2 here] | 8.8 | – |
| Cc1sc2c(c1C)C(c1ccc(Cl)cc1)=N[C@@H](CC(=O)N1CCN(CCCC3CCN(c4ccc5c(c4)CN(C4CCC(=O)NC4=O)C5=O)CC3)CC1)c1nnc(C)n1-2 (stereo in doubt) [listing 1 of 2 here] | 8.8 | – |
| Cc1sc2c(c1C)C(c1ccc(Cl)cc1)=N[C@@H](CC(=O)N1CCN(CC#Cc3ccc4c(c3)CN(C3CCC(=O)NC3=O)C4=O)CC1)c1nnc(C)n1-2 (stereo in doubt) [listing 2 of 2 here] | – | Active |
| Cc1sc2c(c1C)C(c1ccc(Cl)cc1)=N[C@@H](CC(=O)N1CCC(CCN3CCC4(CC3)CCN(c3ccc5c(c3)CN(C3CCC(=O)NC3=O)C5=O)CC4)CC1)c1nnc(C)n1-2 (stereo in doubt) [listing 1 of 2 here] | 9 | – |
| Cc1sc2c(c1C)C(c1ccc(Cl)cc1)=N[C@@H](CC(=O)NCCCCCC(=O)NCCCC#Cc1cccc3c1CN(C1CCC(=O)NC1=O)C3=O)c1nnc(C)n1-2 (stereo in doubt) [listing 1 of 2 here] | 7.3 | – |
| Cc1ncsc1-c1ccc(CNC(=O)[C@@H]2C[C@@H](O)CN2C(=O)[C@@H](NC(=O)CN2CCN(C(=O)CCCCCNC(=O)C[C@@H]3N=C(c4ccc(Cl)cc4)c4c(sc(C)c4C)-n4c(C)nnc43)CC2)C(C)(C)C)cc1 (stereo in doubt; 8P) [listing 1 of 2 here] | 6.2 | – |
| Cc1sc2c(c1C)C(c1ccc(Cl)cc1)=N[C@@H](CC(=O)N1CCC3(CC1)CCN(c1ccc4c(c1)CN(C1CCC(=O)NC1=O)C4=O)CC3)c1nnc(C)n1-2 (stereo in doubt) [listing 1 of 2 here] | 8.8 | – |
| Cc1sc2c(c1C)C(c1ccc(Cl)cc1)=N[C@@H](CC(=O)NCCCCCC(=O)N1CCN(CCCC3CCN(c4ccc5c(c4)CN(C4CCC(=O)NC4=O)C5=O)CC3)CC1)c1nnc(C)n1-2 (stereo in doubt; 10P) [listing 1 of 2 here] | 9.8 | – |
| Cc1sc2c(c1C)C(c1ccc(Cl)cc1)=N[C@@H](CC(=O)N1CCN(CCCC3CCN(c4ccc5c(c4)CN(C4CCC(=O)NC4=O)C5=O)CC3)CC1)c1nnc(C)n1-2 (stereo in doubt; 11P) [listing 1 of 2 here] | 9.7 | – |
| Cc1sc2c(c1C)C(c1ccc(Cl)cc1)=N[C@@H](CC(=O)N1CCN(CCC3CCN(c4ccc5c(c4)CN(C4CCC(=O)NC4=O)C5=O)CC3)CC1)c1nnc(C)n1-2 (stereo in doubt; 6P) [listing 1 of 2 here] | 9.4 | – |
| Cc1ncsc1-c1ccc(CNC(=O)[C@@H]2C[C@@H](O)CN2C(=O)[C@@H](NC(=O)CN2CCN(C(=O)CCCCCNC(=O)C[C@@H]3N=C(c4ccc(Cl)cc4)c4c(sc(C)c4C)-n4c(C)nnc43)CC2)C(C)(C)C)cc1 (stereo in doubt) [listing 1 of 2 here] | 6.3 | – |
| Cc1sc2c(c1C)C(c1ccc(Cl)cc1)=N[C@@H](CC(=O)N1CCC(CCN3CCC4(CC3)CCN(c3ccc5c(c3)CN(C3CCC(=O)NC3=O)C5=O)CC4)CC1)c1nnc(C)n1-2 (stereo in doubt; 2P) [listing 1 of 2 here] | 9.2 | – |
| Cc1sc2c(c1C)C(c1ccc(Cl)cc1)=N[C@@H](CC(=O)N1CCN(CC3CCN(c4ccc5c(c4)CN(C4CCC(=O)NC4=O)C5=O)CC3)CC1)c1nnc(C)n1-2 (stereo in doubt) [listing 1 of 2 here] | 9.1 | – |
| Cc1sc2c(c1C)C(c1ccc(Cl)cc1)=N[C@@H](CC(=O)N1CCC3(CCN(CC4CCN(c5ccc6c(c5)CN(C5CCC(=O)NC5=O)C6=O)CC4)CC3)CC1)c1nnc(C)n1-2 (stereo in doubt) [listing 1 of 2 here] | 9.2 | – |
| Cc1ncsc1-c1ccc(CNC(=O)[C@@H]2C[C@@H](O)CN2C(=O)[C@@H](NC(=O)CCCCCCNC(=O)C[C@@H]2N=C(c3ccc(Cl)cc3)c3c(sc(C)c3C)-n3c(C)nnc32)C(C)(C)C)cc1 (stereo in doubt) [listing 1 of 2 here] | 6.9 | – |

Each compound was assayed against T1, von Hippel-Lindau disease tumor suppressor/Bromodomain-containing protein 4 (assay: Protac activity at VHL E3 ligase/BRD4 in HEK293 cells assessed as degradation maximum by HiBiT assay relative to control).
Format: cell-based

| SMILES | Emax |
| --- | --- |
| Cc1sc2c(c1C)C(c1ccc(Cl)cc1)=N[C@@H](CC(=O)N1CCN(CC3CCN(c4ccc5c(c4)CN(C4CCC(=O)NC4=O)C5=O)CC3)CC1)c1nnc(C)n1-2 (stereo in doubt) [listing 2 of 2 here] | 100% |
| Cc1sc2c(c1C)C(c1ccc(Cl)cc1)=N[C@@H](CC(=O)N1CCN(CC#Cc3ccc4c(c3)CN(C3CCC(=O)NC3=O)C4=O)CC1)c1nnc(C)n1-2 (stereo in doubt; 4P) [listing 2 of 2 here] | 91% |
| Cc1sc2c(c1C)C(c1ccc(Cl)cc1)=N[C@@H](CC(=O)N1CCN(CCC3CCN(c4ccc5c(c4)CN(C4CCC(=O)NC4=O)C5=O)CC3)CC1)c1nnc(C)n1-2 (stereo in doubt) [listing 2 of 2 here] | 99% |
| Cc1sc2c(c1C)C(c1ccc(Cl)cc1)=N[C@@H](CC(=O)N1CCN(CCCC3CCN(c4ccc5c(c4)CN(C4CCC(=O)NC4=O)C5=O)CC3)CC1)c1nnc(C)n1-2 (stereo in doubt; 11P) [listing 2 of 2 here] | 99% |
| Cc1sc2c(c1C)C(c1ccc(Cl)cc1)=N[C@@H](CC(=O)NCCCCCC(=O)NCCCC#Cc1cccc3c1CN(C1CCC(=O)NC1=O)C3=O)c1nnc(C)n1-2 (stereo in doubt) [listing 2 of 2 here] | 93% |
| Cc1ncsc1-c1ccc(CNC(=O)[C@@H]2C[C@@H](O)CN2C(=O)[C@@H](NC(=O)CN2CCN(C(=O)CCCCCNC(=O)C[C@@H]3N=C(c4ccc(Cl)cc4)c4c(sc(C)c4C)-n4c(C)nnc43)CC2)C(C)(C)C)cc1 (stereo in doubt; 8P) [listing 2 of 2 here] | 80% |
| Cc1sc2c(c1C)C(c1ccc(Cl)cc1)=N[C@@H](CC(=O)N1CCC(CCN3CCC4(CC3)CCN(c3ccc5c(c3)CN(C3CCC(=O)NC3=O)C5=O)CC4)CC1)c1nnc(C)n1-2 (stereo in doubt; 2P) [listing 2 of 2 here] | 90% |
| Cc1sc2c(c1C)C(c1ccc(Cl)cc1)=N[C@@H](CC(=O)NCCCCCC(=O)N1CCN(CCCC3CCN(c4ccc5c(c4)CN(C4CCC(=O)NC4=O)C5=O)CC3)CC1)c1nnc(C)n1-2 (stereo in doubt; 10P) [listing 2 of 2 here] | 99% |
| Cc1ncsc1-c1ccc(CNC(=O)[C@@H]2C[C@@H](O)CN2C(=O)[C@@H](NC(=O)CN2CCN(C(=O)CCCCCNC(=O)C[C@@H]3N=C(c4ccc(Cl)cc4)c4c(sc(C)c4C)-n4c(C)nnc43)CC2)C(C)(C)C)cc1 (stereo in doubt) [listing 2 of 2 here] | 101% |
| Cc1sc2c(c1C)C(c1ccc(Cl)cc1)=N[C@@H](CC(=O)N1CCN(CC3CCN(c4ccc5c(c4)CN(C4CCC(=O)NC4=O)C5=O)CC3)CC1)c1nnc(C)n1-2 (stereo in doubt; 1P) [listing 2 of 2 here] | 89% |
| Cc1sc2c(c1C)C(c1ccc(Cl)cc1)=N[C@@H](CC(=O)NCCCCCC(=O)N1CCN(CCCC3CCN(c4ccc5c(c4)CN(C4CCC(=O)NC4=O)C5=O)CC3)CC1)c1nnc(C)n1-2 (stereo in doubt) [listing 2 of 2 here] | 100% |
| Cc1sc2c(c1C)C(c1ccc(Cl)cc1)=N[C@@H](CC(=O)N1CCC3(CC1)CCN(c1ccc4c(c1)CN(C1CCC(=O)NC1=O)C4=O)CC3)c1nnc(C)n1-2 (stereo in doubt) [listing 2 of 2 here] | 100% |
| Cc1sc2c(c1C)C(c1ccc(Cl)cc1)=N[C@@H](CC(=O)NCCCCCC(=O)NCCCC#Cc1cccc3c1CN(C1CCC(=O)NC1=O)C3=O)c1nnc(C)n1-2 (stereo in doubt; 9P) [listing 2 of 2 here] | 83% |
| Cc1sc2c(c1C)C(c1ccc(Cl)cc1)=N[C@@H](CC(=O)N1CCC(CCN3CCC4(CC3)CCN(c3ccc5c(c3)CN(C3CCC(=O)NC3=O)C5=O)CC4)CC1)c1nnc(C)n1-2 (stereo in doubt) [listing 2 of 2 here] | 100% |
| Cc1ncsc1-c1ccc(CNC(=O)[C@@H]2C[C@@H](O)CN2C(=O)[C@@H](NC(=O)CCCCCCNC(=O)C[C@@H]2N=C(c3ccc(Cl)cc3)c3c(sc(C)c3C)-n3c(C)nnc32)C(C)(C)C)cc1 (stereo in doubt; 7P) [listing 2 of 2 here] | 94% |
| Cc1sc2c(c1C)C(c1ccc(Cl)cc1)=N[C@@H](CC(=O)N1CCN(CC#Cc3ccc4c(c3)CN(C3CCC(=O)NC3=O)C4=O)CC1)c1nnc(C)n1-2 (stereo in doubt) [listing 2 of 2 here] | 96% |
| Cc1ncsc1-c1ccc(CNC(=O)[C@@H]2C[C@@H](O)CN2C(=O)[C@@H](NC(=O)CCCCCCNC(=O)C[C@@H]2N=C(c3ccc(Cl)cc3)c3c(sc(C)c3C)-n3c(C)nnc32)C(C)(C)C)cc1 (stereo in doubt) [listing 2 of 2 here] | 96% |
| Cc1sc2c(c1C)C(c1ccc(Cl)cc1)=N[C@@H](CC(=O)N1CCC3(CCN(CC4CCN(c5ccc6c(c5)CN(C5CCC(=O)NC5=O)C6=O)CC4)CC3)CC1)c1nnc(C)n1-2 (stereo in doubt; 3P) [listing 2 of 2 here] | 80% |
| Cc1sc2c(c1C)C(c1ccc(Cl)cc1)=N[C@@H](CC(=O)N1CCN(CCC3CCN(c4ccc5c(c4)CN(C4CCC(=O)NC4=O)C5=O)CC3)CC1)c1nnc(C)n1-2 (stereo in doubt; 6P) [listing 2 of 2 here] | 79% |
| Cc1sc2c(c1C)C(c1ccc(Cl)cc1)=N[C@@H](CC(=O)N1CCC3(CCN(CC4CCN(c5ccc6c(c5)CN(C5CCC(=O)NC5=O)C6=O)CC4)CC3)CC1)c1nnc(C)n1-2 (stereo in doubt) [listing 2 of 2 here] | 99% |
| Cc1sc2c(c1C)C(c1ccc(Cl)cc1)=N[C@@H](CC(=O)N1CCN(CCCC3CCN(c4ccc5c(c4)CN(C4CCC(=O)NC4=O)C5=O)CC3)CC1)c1nnc(C)n1-2 (stereo in doubt) [listing 2 of 2 here] | 100% |
